Assay results from patent publication US6521594B1, “Method and composition for treating thrombosis” (La Jolla Cancer Research Foundation, priority 1990, dated 2003).
Read-outs that look alike come from different tables or passages of the source. No end group written: not given here. *: point of attachment. Pmc = Cc1c(C)c(S(=O)(=O)*)c(C)c2c1OC(C)(C)CC2

Legend:
αvβ5 [1] = assay: αvβ5 ELISA IC50 (μM)
Source text: Table printed on a drawing sheet, FIG. 22
Title: Modifications of Ac-CNPRGD(Y-OMe)RC-NH2
(§1) Head of the field: αvβ5 ELISA IC50 (μM)
First copying reader's note: Underlining in the printed sequences marks the cyclic part; the footnote for the raised a at 'Peptide' is not printed on the sheet, and the D in D-Pen is printed as a small capital.
(§2) Where the first naming reader finds the target: head: αvβ5 ELISA IC50 (μM)

αvβ5 [2] = assay: αvβ5 ELISA IC50 (μM); remark: listed apart in the source
Source text: Table printed on a drawing sheet, FIG. 23
Title: Modification of Ac-CNPRGD(Y-OMe)RC-NH2
as §1
First copying reader's note: Underlining in the printed sequences marks the cyclised part (C to C); the footnote for the raised a on 'Peptide' is not printed on the sheet.
as §2

platelets [3] = molecular target: T1, platelets (Homo sapiens, UniProt P05106+P08514); format: cell-based; conditions: ADP 10 μm; citrated PRP; read-out: ADP-Stimulated Aggregation (IC50)
Procedure: Briefly, the change in light transmission was measured through a stirred suspension of platelets in an aggregometer (Model 400 VS, Chrono-Log, Havertown, Pa., USA). […] In studies using thrombin, the PRP was gel-filtered on Sepharose 2B in divalent ion-free Tyrode's solution containing 2% BSA. For all studies, the reference standard was platelet-poor plasma, which was obtained by centrifuging PRP at 1000×g for 5 min.
(§5) All aggregation studies were performed at 37° C. with a constantly stirred suspension of 3×10^8 platelets/ml. (Platelet count was determined with the aid of a hemacytometer.) Peptides and stimulants were added to these suspensions in 1% dilutions. The PRP and gel-filtered platelets were used within three hours from the time of blood collection.
(§6) Peptide anti-aggregation potencies were determined from dose-responsive curves for the inhibition of the maximum aggregation responses stimulated by physiologic doses of ADP (10 μm) and thrombin (2 U/ml).

platelets [4] = molecular target: T1, platelets; assay: Platelet aggregation assay (Examples XI.G and XII); format: cell-based
Procedure: Platelet aggregation was assessed using the method of Born, Nature 194:927-929 (1962), incorporated herein by reference. Briefly, the change in light transmission was measured through a stirred suspension of platelets in an aggregometer (Model 400 VS, Chrono-Log, Havertown, Pa., USA). Studies employing ADP were performed with platelet-rich plasma (PRP), which was obtained by low-speed centrifugation (200×g for 10 min.) of whole blood freshly drawn into trisodium citrate (at a final concentration of 11 mM). In studies using thrombin, the PRP was gel-filtered on Sepharose 2B in divalent ion-free Tyrode's solution containing 2% BSA. For all studies, the reference standard was platelet-poor plasma, which was obtained by centrifuging PRP at 1000×g for 5 min.
All aggregation studies were performed at 37° C. with a constantly stirred suspension of 3×10^8 platelets/mL. (Platelet count was determined with the aid of a hemacytometer.) Peptides and stimulants were added to these suspensions in 1% dilutions. The PRP and gel-filtered platelets were used within three hours from the time of blood collection.
The peptides described in this Example were synthesized according to the methods of Examples I and XI. Selectivity and potency were measured according to the methods of Examples II through XI. The peptide identification numbers used in this Example are consistent and relevant to this Example only. Some of the peptides are identified by other nomenclature elsewhere in this document.

platelets [5] = molecular target: T1, platelets; assay: Thrombin-stimulated platelet aggregation (gel-filtered platelets); format: cell-based; conditions: thrombin 2 U/ml
Procedure: as §5, §6

αvβ5 [6] = assay: αvβ5 ELISA IC50 (μM); remark: listed apart in the source
Source text: Table printed on a drawing sheet, FIG. 19
(§3) Title: Modifications of R(Pmc)GHRGD(Y-OMe)RCR
as §1
First copying reader's note: The part of each sequence from (Pmc) through C is underlined on the sheet, and the footnotes a,b cited in the head are not printed on it.
as §2

αvβ5 [7] = assay: αvβ5 ELISA IC50 (μM); remark: listed apart in the source
Source text: Table printed on a drawing sheet, FIG. 17
Title: Modifications of G(Pen)[…]
as §1
The patent's description of the figure: FIG. 17 is a Table showing the effect of modifications of Pen residue at position −3 (as defined, infra) on potency and selectivity.
First copying reader's note: Underlining in the printed sequences marks the cyclized part; the footnotes a and b are referenced but not printed on the sheet.
as §2

αvβ5 [8] = assay: αvβ5 ELISA IC50 (μM); remark: listed apart in the source
Source text: Table printed on a drawing sheet, FIG. 20
as §3, §1
First copying reader's note: Footnote marks a, b and c are printed but their texts are not on the sheet; the underlined part of each sequence (Pmc to C) marks the cyclic portion, and D in (DH) and (DY) is a small capital for the D-amino acid.
as §2

platelets [9] = assay: Ex vivo platelet aggregation in the canine coronary thrombosis study; design: species or system dog; conditions: 10 mg/kg injection
Procedure: For all ex vivo studies (see FIG. 3), control aggregation values were standardized to the percentages of light transmission observed in PRP and PPP samples (0% and 100%, respectively).
(§4) Animals were randomly assigned to two treatment groups: vehicle control (i.e., normal saline) or RGD peptides at various concentrations. Peptides were administered intra-atrially in both bolus and continuous injections. Each bolus injection consisted of 0.5 to 10 mg/kg and was administered 15 minutes before application of the current. A continuous infusion of the same peptide was then started immediately after completion of this initial injection. Animals received a 25 μg/kg/min to 200 μg/kg/min infusion. The anti-thrombotic effects of the peptides were monitored until 30 minutes after the occurrence of a persistent, occlusive thrombus or five hours after the initiation of electrical stimulation (whichever resulted first). If an occlusive thrombus had not developed within four hours after the initiation of current, the peptide infusion was stopped.
Platelet counts and ex vivo aggregation studies were performed one hour before and 1, 3, and 5 hours after application of anodal direct current.
Platelet aggregation was also determined ex vivo at one, three, and five hours after current application. For these studies, arachidonic acid, or collagen was again used to stimulate the platelets.

coronary thrombosis = assay: Electrically induced canine coronary thrombosis (time to full occlusion); format: in vivo, dog
Procedure: Male mongrel dogs weighing 14 to 20 kg were selected based on proper aggregation of their platelets in response to arachidonic acid, collagen, and adenosine disphosphate (ADP) and based on similar weights and hemodynamic properties.
Before surgery, the animals were anesthetized with sodium pentobarbital (30 mg/kg, i.v.) and then intubated and ventilated on room air with positive pressure using a respirator (Harvard Apparatus, S. Natick, Mass.) at a volume of 30 ml/kg and a frequency of 12 breaths/min. Surgery, performed under aseptic conditions, was begun with the placement of cannulae into the left carotid artery and jugular vein for monitoring arterial blood pressure (Statham P23 pressure transducer, Gould, Inc., Cardiovascular Products, Oxnard, Calif.) and administering intravenous fluids.
The heart was exposed via a left thoracotomy through the 5th intercostal space. A 2-cm segment of the left circumflex coronary artery (LCCA) was isolated from surrounding tissue by blunt dissection. […] The intra-coronary electrode was constructed by attaching a 25-gauge hypodermic needle tip to a 30-gauge Teflon-insulated silver-coated copper wire. The mechanical occluder was constructed of stainless steel in a C shape with a Teflon screw (2 mm diameter) on top. It was adjusted to control vessel circumference and decrease the reactive hyperemic flow due to a 10-sec (full) occlusion by 50-70% without affecting basal coronary blood flow (FIG. 1). A monopolar epicardial electrode was sutured to the surface of the ventricle in the region of LCCA distribution to monitor ischemic changes in the electrocardiogram (ECG). The left atrium was cannulated with polythylene tubing for administration of the peptide. Continuous recordings of blood pressure, limb lead II ECG, epicardial electrogram, and mean and phasic LCCA blood flow were obtained on a Model 7 polygraph (Grass Instrument Co., Quincy, Mass.).
One hour after the completion of surgery, a 100 micro-amp continuous anodal direct current delivered from a 9 volt nickel-cadmium battery was applied to the intimal surface of the LCCA. The anode of the battery was in series with a 250,000 ohm potentiometer and the intraluminal coronary artery electrode. The electric circuit was completed by placing the cathode in a subcutaneous site. Electrical stimulation was applied for three hours. At the conclusion of each experiment, the heart was fibrillated electrically and quickly removed, and the LCCA was dissected free as far as possible to verify the position of the implanted anodal electrode.
as §4
Coronary thrombosis was quantified as the time to full occlusion. The effects of the various peptide treatments on coronary thrombosis is illustrated in FIG. 4.

T1 sequence (P08514 32-1039): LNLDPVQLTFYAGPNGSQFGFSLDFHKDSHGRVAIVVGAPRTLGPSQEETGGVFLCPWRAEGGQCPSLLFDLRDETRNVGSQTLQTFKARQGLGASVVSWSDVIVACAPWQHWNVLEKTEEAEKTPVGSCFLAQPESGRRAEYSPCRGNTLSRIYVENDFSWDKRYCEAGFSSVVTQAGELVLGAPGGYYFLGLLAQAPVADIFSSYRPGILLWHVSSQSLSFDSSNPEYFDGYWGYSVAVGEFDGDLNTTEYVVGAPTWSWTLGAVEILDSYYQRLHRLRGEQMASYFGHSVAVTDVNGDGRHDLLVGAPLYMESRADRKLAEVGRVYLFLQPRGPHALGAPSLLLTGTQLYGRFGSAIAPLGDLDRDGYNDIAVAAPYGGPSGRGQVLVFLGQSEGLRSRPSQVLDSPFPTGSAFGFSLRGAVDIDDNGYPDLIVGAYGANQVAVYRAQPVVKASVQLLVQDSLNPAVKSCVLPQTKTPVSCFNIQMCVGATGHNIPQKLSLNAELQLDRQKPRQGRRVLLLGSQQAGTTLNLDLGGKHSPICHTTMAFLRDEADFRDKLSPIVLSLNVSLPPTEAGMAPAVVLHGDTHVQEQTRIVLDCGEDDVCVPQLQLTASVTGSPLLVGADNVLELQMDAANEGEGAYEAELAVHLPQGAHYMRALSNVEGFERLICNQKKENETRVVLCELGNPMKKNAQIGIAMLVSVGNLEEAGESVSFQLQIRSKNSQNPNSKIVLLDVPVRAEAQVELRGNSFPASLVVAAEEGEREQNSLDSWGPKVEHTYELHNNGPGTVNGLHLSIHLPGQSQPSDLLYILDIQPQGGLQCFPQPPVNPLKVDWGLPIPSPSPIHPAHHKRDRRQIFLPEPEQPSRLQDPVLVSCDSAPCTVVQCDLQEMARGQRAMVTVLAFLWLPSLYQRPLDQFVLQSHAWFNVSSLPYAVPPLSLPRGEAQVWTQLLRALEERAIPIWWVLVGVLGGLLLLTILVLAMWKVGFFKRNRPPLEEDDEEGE
T1 sequence (P05106 27-788): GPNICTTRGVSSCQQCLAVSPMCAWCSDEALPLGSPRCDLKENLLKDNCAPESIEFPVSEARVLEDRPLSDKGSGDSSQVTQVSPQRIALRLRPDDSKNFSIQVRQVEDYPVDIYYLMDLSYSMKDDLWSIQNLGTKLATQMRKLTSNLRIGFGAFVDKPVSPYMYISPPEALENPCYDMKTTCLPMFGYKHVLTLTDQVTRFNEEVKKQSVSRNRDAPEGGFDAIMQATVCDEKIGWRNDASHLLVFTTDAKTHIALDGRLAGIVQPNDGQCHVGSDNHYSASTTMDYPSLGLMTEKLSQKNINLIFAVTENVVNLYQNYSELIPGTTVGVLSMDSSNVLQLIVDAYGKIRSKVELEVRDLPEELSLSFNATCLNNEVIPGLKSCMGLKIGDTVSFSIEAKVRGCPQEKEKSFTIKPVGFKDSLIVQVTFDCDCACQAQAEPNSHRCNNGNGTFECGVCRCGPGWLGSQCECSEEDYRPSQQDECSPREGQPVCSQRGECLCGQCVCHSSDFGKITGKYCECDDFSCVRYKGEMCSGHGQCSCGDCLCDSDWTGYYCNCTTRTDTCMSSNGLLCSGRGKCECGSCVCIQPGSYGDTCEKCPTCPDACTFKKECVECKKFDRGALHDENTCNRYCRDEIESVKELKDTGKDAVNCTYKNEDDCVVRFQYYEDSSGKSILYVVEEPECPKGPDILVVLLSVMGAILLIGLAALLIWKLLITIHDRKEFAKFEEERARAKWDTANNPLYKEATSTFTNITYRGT

(Mpr)NPRGD(Y-OMe)RC-NH2 [compound 39] showed an IC50 (αvβ5 [1]) of 3 µM.

Work on “Ac-(D-Pen)NPRGD(Y-OMe)RC-NH2 [compound 36]” yielded an IC50 (αvβ5 [1]) of 6.7 µM.

Ac-CNPRGD(Y-OMe)EC-NH2 [11J] was tested, and the IC50 (αvβ5 [2]) was 9.47 µM.

In the case of R(Pmc)GHRGDVRCR, the IC50 (platelets [3]) is reported as 0.69 µM and the “fold increase in platelet aggregation potency on substitution of Leu in analogue 5” value (platelets [4]; comparator analogue 5) is reported as 4 fold.

G(Pen)GHRGDTRCA was tested, and the IC50 (platelets [5]) was 17 µM and the IC50 (platelets [3]) was 11.3 µM.

Work on R(Pmc)GHRGDYRCR yielded an IC50 (platelets [3]) of 1 µM.

R(Pmc)SHRGD(Y-OMe)RCR [compound 19] was tested, and the IC50 (αvβ5 [6]) was 6.6 µM.

Work on G(Pen)LRGDSRCA yielded an IC50 (platelets [5]) of 49 µM and an IC50 (platelets [3]) of 41 µM.

R(Pmc)GHRGDLRCR [analogue 5] showed an IC50 (αvβ5 [7]) of 1.58 µM.

With (Pmp)GHRGDLRCA the “fold increase in potency over analogue 1” value (platelets [4]; comparator analogue 1) was 2 fold.

Substance R(Pen)GRGDTPCA has an IC50 (platelets [3]) of 7 µM.

In the case of GNPRGD(O-Me-Y)RD-NH2 [20Q], the “potency relative to 17J” value (platelets [4]; comparator 17J) is reported as “about three times” and the “potency relative to 18J” value (platelets [4]; comparator 18J) is reported as “about 20 times”.

For R(Pmc)GPRGD(Y-OMe)RCR [compound 26], the IC50 (αvβ5 [8]) was 1.7 µM.

L(Pen)GHRGDLRCA was tested, and the IC50 (platelets [3]) was 10.5 µM.

In the case of R(Pen)GRGDTPCR, the IC50 (platelets [5]) is reported as 2 µM.

In the case of R(D-Pen)GHRGDLRCR [analogue 4], the IC50 (αvβ5 [7]) is reported as 10 µM.

Substance Ac-CNPRGD(Y-OMe)LC-NH2 [compound 47] has an IC50 (αvβ5 [2]) of 7.14 µM.

In the case of G(Pen)GRGDTPCA, the IC50 (platelets [3]) is reported as 22.3 µM.

For R(Pen)GRGDWPCR [4R], the IC50 (platelets [5]) was 0.53 µM, the “ex vivo platelet aggregation by ADP, AA and collagen” value (platelets [9]) was “unresponsive to all modes of stimulation at all time points” and the “coronary thrombosis: time to full occlusion” value (coronary thrombosis; 3 mg/kg) was “ineffective”. The “coronary thrombosis: time to full occlusion” value (coronary thrombosis; 10 mg/kg) was “prevented occlusion throughout the duration of the study”.

In the case of (Mpr)RGD(O-Me-Y)RC-NH2 [16A], the “reactivity in platelet aggregation relative to 8×” value (platelets [4]; comparator 8×) is reported as “about two-fold”.

For Ac-CNPRGD(Y-OMe)(dR)C-NH2 [11L], the “platelet aggregation potency compared with analogue 32” value (platelets [4]; comparator analogue 32) was “decrease in potency”.

Ac-CNPRGD(Y-OMe)KC-NH2 [11R] showed an IC50 (αvβ5 [2]) of 5.82 µM.

With R(Tmc)GHRGDLRCR [analogue 7] the IC50 (αvβ5 [7]) was 0.34 µM.

Substance R(Pmc)G(DY)RGD(Y-OMe)RCR [compound 25] has an IC50 (αvβ5 [8]) of 10 µM.

R(Pmc)RHRGD(Y-OMe)RCR [compound 22] showed an IC50 (αvβ5 [6]) of 6.2 µM.

Substance R(Pmc)DHRGD(Y-OMe)RCR [compound 18] has an IC50 (αvβ5 [6]) of 7.2 µM.
